Laboratory results: PubChem BioAssay AID449762 (Southern Research Specialized Biocontainment Screening …, 2010)
Records with an inconclusive call do not appear.

Test system: M. tuberculosis H37Rv growth inhibition, 7H9 media
Assay: M. tuberculosis growth inhibition, HTS (AID 449762);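 also: bacterial growth assessed after seven days of incubation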
Details: for IC90: measured here: IC90 growth inhibition

Compound	IC50 [µM]	IC90 [µM]
CCOC(=O)COc1ccc(S(=O)(=O)NCCC2=CCCCC2)cc1	13.6	27.6
COc1c(C)cc(C(=O)C2CCCN(Cc3ccccn3)C2)cc1C (stereo unspecified)	5.8	> 100
COc1c[nH]n(C2CCCCC2)c(=O)c1=O	11.8	18.1
O=C(N/N=C/c1cccc2cccnc12)[C@H]1C[C@@H]1c1ccccc1	18.6	34.7
COC(=O)CN1C(c2ccc(Cl)cc2)=Nc2ccc(Cl)cc2C1c1ccccc1 (stereo unspecified)	11.8	13.7
Cc1ccc2c(c1)c(C1=c3ccccc3=NC1=O)c(O)n2C	1.17	3.07
CC1(C)c2[nH]c3ccccc3c2C[C@@H]2C(=O)N(Cc3ccccc3F)C(=O)N21	47.1	> 100
Cc1ccc(C(=O)N2N=C(c3ccc(NS(C)(=O)=O)cc3)CC2c2cccs2)cc1 (stereo unspecified)	12.4	21.2
CCc1ccc2oc(-c3ccc(OC)cc3)cc(=Nc3c(C)n(C)n(-c4ccccc4)c3=O)c2c1	22.4	25.1
C#CCOCCOCCOCCNc1nc(N2CCN(C(=O)CCCCCCCCCCNC(=O)[C@H](CCCCN)n3cc(CCCC(=O)O)nn3)CC2)nc(N2CCN(C(=O)CCCCCCCCCCNC(=O)[C@H](CCCN=C(N)N)n3cc(C[C@@H](C)CC)nn3)CC2)n1	4.78	5.97
COc1ccc(COC(=O)CCNC(=O)c2ccc(Cl)cc2)cc1	58.7	> 100
CN(C(=O)c1cccc(Nc2ccc(-c3ccc4c(c3)OCCO4)nn2)c1)C1CCCCC1	50.8	> 100
COc1ccc(N2C(=O)C(Cl)=C(Nc3ccccc3O)C2=O)cc1	14.2	25.7
Cc1cccc(NC(=O)CCSc2nnc(Cc3ccccc3)o2)c1	17.1	49.3
CCc1ccc2c(c1)/C(=C/C(=O)c1cccs1)C(=O)N2	1.06	3.19
CN(C)C1(CNC(=O)Nc2ccc(Cl)c(Cl)c2)CCCCC1	11.2	12.5
COC(=O)CC(=O)N1CCN(c2ccc(Cl)c(Cl)c2)CC1	20	55
CSC(=S)NCc1cccnc1	11.5	34.7
Cc1ccc(C)c(-c2nnc(NC(=O)C3=COCCO3)o2)c1	5.33	12.2
Nc1ccc(N=Nc2ccccc2)c2cccnc12	10.9	49.5
CCOC(=O)c1sc2ncnc(NCC(c3cccs3)N(C)C)c2c1C (stereo unspecified)	34.9	71.6
CCOC(=O)c1ccc(NC(=O)Cn2ncc(Cl)c(Cl)c2=O)cc1	< 0.2	0.44

Compound	IC50 [µM]	IC90 [µM]
Cc1ccc(CN2CCC(c3cc(-c4ccc(Cl)cc4)n[nH]3)CC2)cc1	11.6	14.8
FC(F)(Cl)c1nnc2ccc(Cl)nn12	0.26	0.86
O=[N+]([O-])c1cc([N+](=O)[O-])c2c(=Nc3ccccc3)n(-c3ccccc3)n(O)c2c1	6.35	9.25
COCCCN=C1NN=C(c2cc(C)n(Cc3ccco3)c2C)CS1	60.9	87.4
CCCCN1C(=O)C2(NNc3ccccc3O2)c2ccccc21 (stereo unspecified)	57.5	> 100
CCCc1cc(-c2nc(N)ncc2-c2ccc3c(c2)OCCCO3)c(O)cc1OC	48.6	54.9
COc1ccc(/C=N/OCC(=O)OCC(=O)N(C)c2ccccc2)cc1	8.22	39.1
COc1ccc(CNC(=O)c2c(N)n(CCCN3CCOCC3)c3nc4ccccc4nc23)cc1	94	> 100
Cc1nc(NC(=O)c2ccccc2)sc1C1(C)CC(c2ccc(OC(F)(F)F)cc2)=NO1 (stereo unspecified)	24.6	41.1
CCOC(=O)CCCNC(=O)COC(=O)c1cc(Br)c(Br)s1	9.86	> 100
O=C(OCC#CCSc1nnc(-c2cccc3ccccc23)o1)c1cccs1	35.5	63.9
CCCC12CN3CC(CCC)(CN(C1)C3c1ccccn1)C2=O (stereo unspecified)	1.02	18.1
Cc1ccc(C2=NN(C)c3nc4ccccc4n3C2)cc1	20.4	78.3
CCn1c2ccccc2c2cc(CN3CCN(Cc4cc(OC)ccc4O)CC3)ccc21	16.8	23.5
CCc1ccc(NCc2ccc(OC)c(Cn3ccnc3)c2)cc1	21.5	23.9
COc1ccccc1C1CC(c2c(-c3ccccc3)c3cc(Cl)ccc3[nH]c2=O)=NN1S(C)(=O)=O (stereo unspecified)	93.7	> 100
COc1ccc(-c2nnc(NC(=O)c3ccc([N+](=O)[O-])o3)o2)c(OC)c1	1.05	3.04
CC(C)(C)c1nc2sc3c(c2c(=O)o1)CCCC3		> 100
CCOC(=O)c1nn(-c2ccc(C)c(C)c2)cc1O	27.1	> 100
CC(C)(C)c1ccc(-c2nc(-c3ccncc3)no2)cc1	9.16	33.6
COc1cccc(C2C3=C(N=c4s/c(=C\c5cccc(O)c5)c(=O)n42)c2ccccc2CC3)c1OC (stereo unspecified)	23.3	27.1
Cc1c(Cl)c([N+](=O)[O-])nn1Cc1ccc(C(=O)N/N=C\c2cccc(Br)c2)o1	66.7	> 100

Compound	IC50 [µM]	IC90 [µM]
O=C(C/C=N\OCc1ccc([N+](=O)[O-])cc1)Nc1ccc(F)cc1F	20.3	98.4
O=C(CCSc1ccccn1)c1ccccc1	10.2	19.1
CCOc1cccc(/C=C/c2ccc3cccc(O)c3n2)c1O	1.38	18.5
CC1=NN(c2ccccc2)C(=O)C1C(=O)c1ccccc1 (stereo unspecified)	25.7	53
COc1ccccc1C(CNC(=O)C(C)(C)Oc1ccc(Cl)cc1)N1CCCC1 (stereo unspecified)	23.5	26.5
CN1/C(=C\C(=O)COC(=O)c2ccc([N+](=O)[O-])o2)C(C)(C)c2ccccc21	1.04	3.54
CCOc1ccc(N2C=Nc3ccc(OCC)cc3C2)cc1	44	89.4
CC(C)(C)NC(=O)[C@@H]1C[C@@H]2CCCC[C@@H]2CN1C[C@@H](O)[C@H](Cc1ccccc1)NC(=O)[C@H](CC(N)=O)NC(=O)c1ccc2ccccc2n1	40.1	51.9
NC(N)=N/N=C/c1ccc(N(c2ccccc2)c2ccccc2)cc1	10.9	13.7
COC(=O)c1ccc(Cn2cc(C(F)(F)F)cc([N+](=O)[O-])c2=O)cc1	< 0.2	23.7
COc1ccc(-c2ccnc3nc(N4CCN(c5ccccc5)CC4)nn23)cc1	36.4	47.9
CC(C)NC(=S)N/N=C/c1cc(Br)ccc1O	6.79	18.3
Cc1ccc(-c2csc(N3CCN(CCCn4c(-c5ccncc5)nc5ccccc54)CC3)n2)cc1	23.4	26.5
Oc1ccccc1NCC(O)Cn1ccc2ccccc21 (stereo unspecified)	5.37	8.32
CCOC(=O)c1cnc2ccc(OCC)cc2c1N1CCN(c2ccccc2)CC1	27.1	> 100
Oc1ccc(C[C@H]2CNCCN2CCCCC2CCCCC2)cc1	31.5	59.2
CC(C)CS(=O)(=O)C1=NN2C(=N)/C(=C\c3ccc(OC(=O)c4ccco4)cc3)C(=O)N=C2S1	20.6	25.9
CNC(=S)Nc1ccc(N2CCN(c3ccc(C(F)(F)F)cn3)CC2)nc1	9.93	> 100
O=C1/C(=N\S(=O)(=O)c2cccs2)C([n+]2ccc(CCCc3ccccc3)cc2)=C([O-])c2ccccc21	18.2	22.1
CCC(=O)Oc1ccc(C(=O)Nc2ccc3c(c2)C(=O)N(C2CCCCC2)C3=O)cc1	21.2	44.5
O=C(CCc1ccc(Oc2cc([N+](=O)[O-])cc([N+](=O)[O-])c2)cc1)N1CCCCCC1	4.2	27
COc1ccc(-c2nnn(CC(=O)OC3CCCCC3)n2)cc1OC	5.71	62.7

Compound	IC50 [µM]	IC90 [µM]
O=C1c2cccc3c([N+](=O)[O-])ccc(c23)C(=O)N1O	8.11	13.8
CCOc1ccc(CN(C)CC(O)COC(c2ccc(OC)cc2)c2ccc(OC)cc2)cc1 (stereo unspecified)	10.5	13.4
CCOC(=O)c1ccc2c(c1)C(=O)N(C1CCCCC1)C2=O	98.3	> 100
COC(=O)CCn1c(C)cc(C(=O)COc2ccccc2C(N)=O)c1C	10.2	15.8
O=C(NCCC1=CCCCC1)NC12CC3CC(CC(C3)C1)C2	< 0.2	0.34
O=C(CN1CCC(n2nnc3cc(C(F)(F)F)ccc32)CC1)NCc1cccs1	37.5	47.8
O=C1NCN(c2ccccc2)C12CCN(CCCC(c1ccc(F)cc1)c1ccc(F)cc1)CC2	36.8	47.1
Cc1nc(Nc2ccc(Cl)c(Cl)c2)sc1C(=O)Nc1ccccc1	19.2	> 100
COc1ccccc1/C=C/C(=O)Nc1ccc(S(=O)(=O)Nc2cc(C)on2)cc1	5.01	17.3
O=c1[nH]c(CN2CC=C(c3ccccc3)CC2)nc2cc(C(F)(F)F)ccc12	69.4	86
Oc1ccccc1/C=N/Nc1ccnc(SCc2ccccc2)n1	1.43	1.55
CCOC(=O)C1(CCOc2ccccc2)CCN(Cc2cccc(-n3cccn3)c2)CC1	25.4	28.8
COc1ccc(N/N=C(/N=Nc2nc(C)cc(=O)[nH]2)c2ccccc2)cc1	5.91	6.69
Cc1ccc(C2=NCCn3c2c2ccccc2[n+]3[O-])cc1	22.6	38.9
CC(C)(C)c1ccc(OCCCC(=O)NC2=NCCS2)cc1	23	60.6
CCN1C(=NCCc2ccc(Br)cc2)N[C@@H](c2ccccc2)[C@H](C(=O)OC)[C@H]1C	16.7	22.1
Cc1ccc(S(=O)(=O)n2ccc3c(OCCOCCNCc4ccc(F)cc4)cccc32)cc1	22.1	25.5
Oc1cccc(-c2nc3ccc4ccccc4c3c3c2CCC3)c1	7.31	26.8
Cc1c(Cl)cccc1-c1ccc(CNCc2ccccn2)o1	0.7	4.03
CCOC(=O)c1ccc(NC2=CC(=O)C(=O)c3ccccc32)cc1	31.7	39.7
